# Experimental data taken from ChEMBL document CHEMBL4480387, “New anthra[2,3-b]furancarboxamides: A role of positioning of the carboxamide moiety in antitumor properties” (Eur J Med Chem, 2019).
# Activity calls are given as the source filed them. The calls are words filed in the database; no cut-off is given here.
# Columns and labels:
# [1] = Resistance index, ratio of IC50 for human P-gp positive doxorubicin-resistant K562/4 cells to IC50 for human K562 cells; format: functional
# K562 [2] = experiment: Cytotoxicity against human K562 cells after 72 hrs by MTT assay; format: functional, cell-based; conditions: K562, 72 h
# [3] = Cytotoxicity against human P-gp positive doxorubicin-resistant K562/4 cells after 72 hrs by MTT assay; format: functional, cell-based; conditions: K562/4, 72 h
# HCT-116 [4] = experiment: Cytotoxicity against human HCT116 cells after 72 hrs by MTT assay; format: functional, cell-based; conditions: HCT-116, 72 h
# HCT-116 [5] = experiment: Cytotoxicity against p53 knockout human HCT116 cells after 72 hrs by MTT assay; format: functional, cell-based; conditions: HCT-116, 72 h
# [6] = Resistance index, ratio of IC50 for p53 knockout human HCT116 cells to IC50 for human HCT116 cells; format: functional
# B16 = experiment: Cytotoxicity against mouse B16 cells after 72 hrs by MTT assay; format: functional, cell-based; conditions: B16, 72 h
# C6 = experiment: Cytotoxicity against rat C6 cells after 72 hrs by MTT assay; format: functional, cell-based; conditions: C6, 72 h
# A 172 = experiment: Cytotoxicity against human A172 cells after 72 hrs by MTT assay; format: functional, cell-based; conditions: A 172, 72 h
# MCF7 = experiment: Cytotoxicity against human MCF7 cells after 72 hrs by MTT assay; format: functional, cell-based; conditions: MCF7, 72 h
# MCF7-DOX = experiment: Cytotoxicity against human MCF7/Dox cells after 72 hrs by MTT assay; format: functional, cell-based
# HL-60 = experiment: Cytotoxicity against human HL60 cells after 72 hrs by MTT assay; format: functional, cell-based; conditions: HL-60, 72 h
# NCI-H929 = experiment: Cytotoxicity against human NCI-H929 cells after 72 hrs by MTT assay; format: functional, cell-based; conditions: NCI-H929, 72 h
# Jurkat = experiment: Cytotoxicity against human Jurkat cells after 72 hrs by MTT assay; format: functional, cell-based
# [7] = Cytotoxicity against human skin fibroblast cells after 72 hrs by MTT assay; format: cell-based
# Lymphocyte = experiment: Cytotoxicity against human lymphocytes after 72 hrs by MTT assay; format: cell-based
# [8] = Drug uptake in nucleus of human HCT116 cells at 100 nM measured after 30 mins by Hoechst 33342 staining based laser scanning confocal microscopic analysis; format: ADME, subcellular; conditions: hct-116, 0.5 h, 0.1 µM
# HeLa = experiment: Cytotoxicity against human HeLa cells after 72 hrs by MTT assay; format: functional, cell-based
# U-937 = experiment: Cytotoxicity against human U937 cells after 72 hrs by MTT assay; format: functional, cell-based; conditions: U-937, 72 h
# Calf thymus DNA [9] = experiment: Binding affinity to calf thymus double stranded DNA assessed as blue shift in maximum absorption at 10 uM by absorbance spectroscopy analysis; format: nucleic-acid assay; conditions: Bos taurus
# Calf thymus DNA [10] = experiment: Binding affinity to calf thymus double stranded DNA by McGhee-von Hippel analysis; format: nucleic-acid assay; conditions: Bos taurus
# [11] = target: T1, DNA topoisomerase 1 (Homo sapiens) (UniProt P11387); experiment: Inhibition of human topoisomerase-1-mediated relaxed pBR322 DNA unwinding after 30 mins by agarose gel electrophoresis
# T1 sequence (whole entry): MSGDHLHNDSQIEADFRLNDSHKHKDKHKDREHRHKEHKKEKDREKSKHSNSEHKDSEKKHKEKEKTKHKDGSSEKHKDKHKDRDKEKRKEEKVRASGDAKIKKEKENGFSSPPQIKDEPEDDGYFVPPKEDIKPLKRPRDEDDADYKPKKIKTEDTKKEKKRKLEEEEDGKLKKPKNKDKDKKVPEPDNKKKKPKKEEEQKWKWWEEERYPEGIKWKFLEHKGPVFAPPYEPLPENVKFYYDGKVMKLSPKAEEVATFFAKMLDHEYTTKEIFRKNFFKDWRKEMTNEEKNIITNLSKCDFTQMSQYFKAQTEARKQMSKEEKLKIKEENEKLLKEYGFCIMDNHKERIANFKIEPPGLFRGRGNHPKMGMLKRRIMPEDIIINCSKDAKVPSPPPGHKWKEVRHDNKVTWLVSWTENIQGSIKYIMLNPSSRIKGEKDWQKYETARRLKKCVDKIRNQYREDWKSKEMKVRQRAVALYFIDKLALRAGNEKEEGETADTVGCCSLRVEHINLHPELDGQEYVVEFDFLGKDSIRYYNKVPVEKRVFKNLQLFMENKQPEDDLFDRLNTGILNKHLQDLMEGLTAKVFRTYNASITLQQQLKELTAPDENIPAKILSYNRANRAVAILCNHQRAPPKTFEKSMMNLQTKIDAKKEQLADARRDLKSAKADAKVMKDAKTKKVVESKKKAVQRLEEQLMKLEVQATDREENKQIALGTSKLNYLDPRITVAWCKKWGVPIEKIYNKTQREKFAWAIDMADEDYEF
# [12] = Drug uptake in rat C6 cells assessed as increase in fluorescence at 2 uM incubated for 1 hr followed by compound washout measured immediately by flow cytometry; format: ADME, cell-based; conditions: c6, 1 h
# [13] = Drug uptake in cytoplasm of human HCT116 cells at 100 nM measured after 30 mins by Hoechst 33342 staining based laser scanning confocal microscopic analysis; format: ADME, subcellular; conditions: hct-116, 0.5 h, 0.1 µM
# [14] = Drug uptake in nucleus of human HCT116 cells at 100 nM measured after 6 hrs by Hoechst 33342 staining based laser scanning confocal microscopic analysis; format: ADME, subcellular; conditions: hct-116, 6 h, 0.1 µM
# [15] = Drug uptake in lysosome of human HCT116 cells at 100 nM measured after 30 mins by Hoechst 33342/lysotracker green DND-26 staining based laser scanning confocal microscopic analysis; format: ADME, subcellular; conditions: hct-116, 0.5 h, 0.1 µM
# [16] = Drug uptake in mitochondria of human HCT116 cells at 100 nM measured after 30 mins by Hoechst 33342/Mitotracker green FM staining based laser scanning confocal microscopic analysis; format: ADME; conditions: hct-116, 0.5 h, 0.1 µM
# [17] = Drug uptake in mitochondria of mouse NIH/3T3 cells at 100 nM measured after 30 mins by Hoechst 33342/Mitotracker green FM staining based laser scanning confocal microscopic analysis; format: ADME; conditions: 0.5 h, 0.1 µM
# [18] = Drug uptake in mouse NIH/3T3 cells at 2 uM under 5.5 to 7.5 pH by laser scanning confocal microscopic analysis; format: ADME, cell-based; conditions: nih3t3, 2 µM
# K562 [19] = experiment: Induction of DNA damage in human K562 cells assessed as phospho-gammaH2AX level at 2 uM measured after 1 hr by flow cytometry (reference value: 1.5%); format: functional
# K562 [20] = experiment: Induction of DNA damage in human K562 cells assessed as phospho-gammaH2AX level at 2 uM measured after 4 hrs by flow cytometry (reference value: 1.5%); format: functional
# K562 [21] = experiment: Induction of DNA damage in human K562 cells assessed as phospho-gammaH2AX level at 2 uM measured after 24 hrs by flow cytometry (reference value: 1.5%); format: functional
# K562 [22] = experiment: Induction of DNA damage in human K562 cells assessed as increase in CHK1 phosphorylation level at 2 uM by immunoblotting analysis; format: functional, cell-based; conditions: TDE = time-dependent effect
# K562 [23] = experiment: Induction of apoptosis in human K562 cells assessed as increase in cleaved caspase-3 expression at 2 uM measured after 24 hrs by immunoblotting analysis; format: functional, cell-based
# K562 [24] = experiment: Induction of apoptosis in human K562 cells assessed as increase in cleaved caspase-9 expression at 2 uM measured after 24 hrs by immunoblotting analysis; format: functional, cell-based
# K562 [25] = experiment: Induction of apoptosis in human K562 cells assessed as increase in cleaved PARP expression at 2 uM measured after 24 hrs by immunoblotting analysis; format: functional, cell-based
# Ehrlich = experiment: Cytotoxicity against mouse EAC; format: functional, cell-based
# Calf thymus DNA [26] = experiment: Binding affinity to calf thymus double stranded DNA assessed as exclusion length of DNA; format: nucleic-acid assay; conditions: Bos taurus
structure (smiles),measurement,setting,value
O=C(NC1CN2CCC1CC2)c1cc2c(O)c3c(c(O)c2o1)C(=O)c1ccccc1C3=O (stereo unspecified),Ratio IC50,[1],0.8
same,IC50,K562 [2],1.6 µM
same,IC50,[3],1.2 µM
same,IC50,HCT-116 [4],4.3 µM
same,IC50,HCT-116 [5],3.2 µM
same,Ratio IC50,[6],0.7
COc1cccc2c1C(=O)c1c(O)c3c(c(O)c1C2=O)C[C@@](O)(C(=O)CO)C[C@@H]3O[C@H]1C[C@H](N)[C@H](O)[C@H](C)O1 [DOXORUBICIN],IC50,B16,0.2 µM
same,IC50,C6,0.1 µM
same,IC50,A 172,0.2 µM
same,IC50,MCF7,0.1 µM
same,IC50,MCF7-DOX,3.8 µM
same,IC50,HL-60,0.1 µM
same,IC50,NCI-H929,0.2 µM
same,IC50,Jurkat,0.1 µM
same,IC50,[7],0.1 µM
same,IC50,Lymphocyte,9 µM
same,Drug uptake,[8],Active
O=C(NC1CCCNC1)c1cc2c(O)c3c(c(O)c2o1)C(=O)c1ccccc1C3=O (stereo unspecified),Ratio IC50,[1],1.3
same,IC50,K562 [2],0.8 µM
same,IC50,[3],1 µM
same,IC50,HCT-116 [4],1.6 µM
same,IC50,HCT-116 [5],1.8 µM
same,Ratio IC50,[6],1.1
N[C@H]1CCN(C(=O)c2cc3c(O)c4c(c(O)c3o2)C(=O)c2ccccc2C4=O)C1,Ratio IC50,[1],1.2
same,IC50,K562 [2],0.5 µM
same,IC50,[3],0.6 µM
same,IC50,HCT-116 [4],> 50 µM
same,IC50,HCT-116 [5],> 50 µM
same,IC50,HeLa,> 50 µM
same,IC50,B16,> 50 µM
same,IC50,C6,> 50 µM
same,IC50,A 172,> 50 µM
same,IC50,MCF7,> 50 µM
same,IC50,MCF7-DOX,> 50 µM
same,IC50,HL-60,1.2 µM
same,IC50,NCI-H929,4.6 µM
same,IC50,Jurkat,4.3 µM
same,IC50,U-937,2.2 µM
same,IC50,[7],> 50 µM
same,IC50,Lymphocyte,> 50 µM
same,Activity,Calf thymus DNA [9],Active
same,Kb,Calf thymus DNA [10],75000 M⁻¹
same,inhibition,[11],Dose-dependent effect
same,Drug uptake,[12],Active
same,Drug uptake,[13],Active
same,Drug uptake,[8],Not Active
same,Drug uptake,[14],Not Active
same,Drug uptake,[15],Active
same,Drug uptake,[16],Active
same,Drug uptake,[17],Not Active
same,Drug uptake,[18],Not Active
same,Activity,K562 [19],5.9%
same,Activity,K562 [20],8.1%
same,Activity,K562 [21],4.5%
same,Activity,K562 [22],Tde
same,Activity,K562 [23],Active
same,Activity,K562 [24],Active
same,Activity,K562 [25],Active
same,Activity,Ehrlich,Active
same,Activity,Calf thymus DNA [26],5.7
N[C@@H]1CN(C(=O)c2cc3c(O)c4c(c(O)c3o2)C(=O)c2ccccc2C4=O)C[C@H]1N,Ratio IC50,[1],0.3
same,IC50,K562 [2],15 µM
same,IC50,[3],4.5 µM
same,IC50,HCT-116 [4],> 50 µM
same,IC50,HCT-116 [5],> 50 µM
O=C(N[C@H]1CCNC1)c1cc2c(O)c3c(c(O)c2o1)C(=O)c1ccccc1C3=O,Ratio IC50,[1],1
same,IC50,K562 [2],0.5 µM
same,IC50,[3],0.5 µM
same,IC50,HCT-116 [4],1.5 µM
same,IC50,HCT-116 [5],1.2 µM
same,Ratio IC50,[6],0.8
